Test results taken from ChEMBL document CHEMBL5154652, “Design, synthesis and anti-hepatocellular carcinoma activity of 3-arylisoquinoline alkaloids” (Eur J Med Chem, 2022).
Calls of active or inactive are those of the source. The calls are words filed in the database; no cut-off is given here.

Tests used:
HCCLM9 [1] = experiment: Antitumor activity against human HCCLM9 cells xenografted in male BALB/c nude mouse assessed as inhibition of tumor growth at 15 mg/kg, iv administered once a day for 21 days; format: functional, organism-based; conditions: time 21.0 day
[2] = Half-life in male Sprague-Dawley rat at 100 mg/kg, ip; format: ADME, organism-based; conditions: in vivo
SGC-7901 = experiment: Antiproliferative activity against human SGC-7901 cells after 72 hrs by MTT assay; format: functional, cell-based; conditions: SGC-7901, 72 h
HCCLM9 [3] = experiment: Antiproliferative activity against human HCCLM9 cells after 72 hrs by MTT assay; format: functional, cell-based; conditions: HCCLM9, 72 h
[4] = Cmax in male Sprague-Dawley rat at 100 mg/kg, ip; format: ADME, organism-based; design: dose 100 mg/kg, route ip; conditions: in vivo
HCCLM9 [5] = experiment: Induction of apoptosis in human HCCLM9 cells assessed as increase in cleaved caspase-3 expression at 3.75 to 15 uM; format: functional, cell-based; conditions: dose 3.75-15 µM
Huh-7 [6] = experiment: Induction of apoptosis in human Huh-7 cells assessed as increase in Bax expression at 5 to 20 uM; format: functional, cell-based; conditions: dose 5-20 µM
SW480 = experiment: Antiproliferative activity against human SW480 cells after 72 hrs by MTT assay; format: functional, cell-based; conditions: SW480, 72 h
HCCLM9 [7] = experiment: Induction of mitochondrial apoptosis in human HCCLM9 cells assessed as inhibition of p-PI3K levels at 3.75 to 15 uM measured after 48 hrs by Western blot analysis; format: functional, cell-based; conditions: dose 3.75-15 µM
MCF7 = experiment: Antiproliferative activity against human MCF7 cells after 72 hrs by MTT assay; format: functional, cell-based; conditions: MCF7, 72 h
Huh-7 [8] = experiment: Inhibition of MMP-9 expression in human Huh-7 cells at 5 to 20 uM measured by western blot analysis; format: functional, cell-based; conditions: dose 5-20 µM
Huh-7 [9] = experiment: Induction of cell cycle arrest in human Huh-7 cells assessed as decrease in cell accumulation at G0/G1 phase at 5 to 20 uM measured after 48 hrs by flow cytometry analysis; format: functional, cell-based; conditions: dose 5-20 µM
SK-HEP1 = experiment: Antiproliferative activity against human SK-HEP1 cells after 72 hrs by MTT assay; format: functional, cell-based; conditions: SK-HEP1, 72 h
HCCLM9 [10] = experiment: Induction of cell cycle arrest in human HCCLM9 cells assessed as decrease in cell accumulation at G0/G1 phase at 3.75 to 15 uM measured after 48 hrs by flow cytometry analysis; format: functional, cell-based; conditions: dose 3.75-15 µM
HCCLM9 [11] = experiment: Induction of mitochondrial dysfunction in human HCCLM9 cells assessed as decrease in MMP levels at 5 to 20 uM; format: functional, cell-based; conditions: dose 5-20 µM
Huh-7 [12] = experiment: Induction of apoptosis in human Huh-7 cells at 5 to 20 uM measured by Hoechst staining method; format: functional, cell-based; conditions: dose 5-20 µM
Huh-7 [13] = experiment: Induction of mitochondrial apoptosis in human Huh-7 cells assessed as inhibition of p-Akt levels at 5 to 20 uM measured after 48 hrs by Western blot analysis; format: functional, cell-based; conditions: dose 5-20 µM
Huh-7 [14] = experiment: Induction of apoptosis in human Huh-7 cells assessed as reduction in Bcl-2 expression at 5 to 20 uM; format: functional, cell-based; conditions: dose 5-20 µM
A549 = experiment: Antiproliferative activity against human A549 cells after 72 hrs by MTT assay; format: functional, cell-based; conditions: A549, 72 h
HCCLM9 [15] = experiment: Induction of apoptosis in human HCCLM9 cells assessed as increase in Bax expression at 3.75 to 15 uM; format: functional, cell-based; conditions: dose 3.75-15 µM
HCCLM9 [16] = experiment: Anticlonogenic activity in human HCCLM9 cells at 1.25 to 5 uM measured by colony formation assay; format: functional, cell-based; conditions: dose 1.25-5 µM
[17] = Genotoxicity in human HCCLM9 cells assessed as induction of DNA damage at 20 uM by comet assay; format: toxicity, cell-based; conditions: hcclm9, 20 µM
HCCLM9 [18] = experiment: Inhibition of cell migration in human HCCLM9 cells at 1.25 to 5 uM after 24 hrs by transwell assay; format: functional, cell-based; conditions: dose 1.25-5 µM

CNCc1cc2c(cc1-c1cc3ccc4c(c3cn1)OCO4)OCO2
Activity (HCCLM9 [1]): Active
half-life [2]: 3.73 h
IC50 (SGC-7901): 30.8 µM
IC50 (HCCLM9 [3]): 6.83 µM
Cmax [4]: 8900 ng/mL
Activity (HCCLM9 [5]): Active
Activity (Huh-7 [6]): Active
IC50 (SW480): 9.04 µM
Activity (HCCLM9 [7]): Active
IC50 (MCF7): 22.4 µM
inhibition (Huh-7 [8]): Active
Activity (Huh-7 [9]): Active
IC50 (SK-HEP1): 16.5 µM
Activity (HCCLM9 [10]): Active
Activity (HCCLM9 [11]): Active
Activity (Huh-7 [12]): Active
Activity (Huh-7 [13]): Active
Activity (Huh-7 [14]): Active
IC50 (A549): 36.3 µM
Activity (HCCLM9 [15]): Active
Activity (HCCLM9 [16]): Active
Activity [17]: Non-Toxic
inhibition (HCCLM9 [18]): Active
